Here are results for 57 molecules from ChEMBL document CHEMBL5393443, “Novel inhibitors of insulin-like growth factor 2 mrna binding proteins” (2022).

This assay deals with ES-2. Description: Cytotoxicity against human ES2 cells after 72 hrs by InuCyte live cell imaging analysis. Type of assay: functional, cell-based. As to conditions: ES-2, 72 h.
Regarding `NC(=O)c1cc(Cc2ccccc2)sc1NC(=O)c1ccc(Cl)s1`, the EC50 came to 1660 nM.

In turn, `NC(=O)c1cc(Cc2ccccc2)sc1NC(=O)c1cccc(COc2ccc(Cl)cc2Cl)c1` displayed a concentration giving a half-maximal response (EC50) of 47 nM.

`NC(=O)c1ccccc1NC(=O)CN1CCN(Cc2ccc(Cl)cc2Cl)CC1`: the concentration giving a half-maximal response (EC50) was found to be 993 nM.

The molecule `CCc1cc(C(=O)Nc2sc(Cc3ccccc3)cc2C(N)=O)cs1` yielded a half-maximal effective concentration (EC50) of 1900 nM. This EC50 is about 1.9-fold higher than that of the molecule before.

Molecule `NC(=O)c1cc(Cc2ccccc2)sc1NC(=O)CN1CCN(Cc2ccccc2Cl)CC1` registered an EC50 of 7110 nM. Against the preceding molecule, the EC50 is about 3.7-fold higher.

`NC(=O)c1cc(Cc2ccccc2)sc1NC(=O)c1ccc(COc2ccc(Cl)cc2Cl)s1` yielded an EC50 of 560 nM.

`NC(=O)c1cc(Cc2ccccc2)sc1NC(=O)Cc1cccs1` came in with an EC50 of 1160 nM. Against the preceding molecule, the EC50 is about 2.1-fold higher.

The molecule `NC(=O)c1cc(Cc2ccccc2)sc1NC(=O)COc1ccccc1` yielded an EC50 of 2420 nM. This EC50 is about 2.1-fold higher than that of the molecule before.

Molecule `Cc1cc2c(O)nc(Cc3ccccc3)nc2s1` had an EC50 of 4840 nM.

The molecule `NC(=O)c1cc(Cc2ccccc2)sc1NC(=O)c1ccccc1` came in with a 50% effective concentration (EC50) of 2270 nM. This EC50 is about 2.1-fold lower than that of the molecule before.

As to `COc1ccc(C(=O)Nc2sc(C(C)C)cc2C(N)=O)cc1COc1ccc(Br)cc1`, the EC50 came out at 8340 nM. This EC50 lies about 3.7-fold higher than the previous one.

As to `COc1cc(-c2nc3ccccc3c(=O)[nH]2)ccc1OCc1ccccc1[N+](=O)[O-]`, the EC50 turned out to be 476 nM.

As for `NC(=O)c1ccccc1NC(=O)CN1CCN(Cc2ccc(F)cc2Cl)CC1`, the EC50 was 3170 nM.

With `NC(=O)c1ccccc1NC(=O)CN1CCN(Cc2ccc(Cl)cc2)CC1`, it took 2990 nM to reach a half-maximal effect (EC50).

On to `NC(=O)c1ccsc1NC(=O)CN1CCN(Cc2ccc(Cl)c(Cl)c2)CC1`, for which the EC50 was 781 nM.

With `NC(=O)c1ccccc1NC(=O)c1ccccc1`, the EC50 was 10500 nM.

`NC(=O)c1cc(Cc2ccccc2)sc1NC(=O)c1ccc(COc2ccc(Br)cc2)cc1` came in with a 50% effective concentration (EC50) of 1190 nM.

Regarding `COc1ccc(C(=O)Nc2sc(Cc3ccccc3)cc2C(N)=O)cc1COc1cccc(Cl)c1`, the EC50 stood at 355 nM. Against the preceding molecule, the EC50 is about 3.4-fold lower.

`NC(=O)c1ccccc1OCC(=O)c1ccc(Br)cc1` gave a 50% effective concentration (EC50) of 2950 nM.

Molecule `COc1ccc(C(=O)Nc2sc(Cc3ccccc3)cc2C(N)=O)cc1OCc1ccccc1Cl` displayed an EC50 of 1100 nM.

For `O=c1[nH]c(-c2ccc(OCc3ccccc3F)cc2)nc2ccccc12`, the response was half-maximal at 250 nM (EC50).

As to `CNC(=O)c1ccccc1NC(=O)c1cc(C)c(C)s1`, the EC50 was found to be 2830 nM.

Molecule `NC(=O)c1cc(Cc2ccccc2)sc1NC(=O)CN1CCN(Cc2ccc(Cl)c(Cl)c2)CC1` gave a half-maximal effective concentration (EC50) of 4090 nM.

`COc1cc(/C=C/C(=O)Nc2ccccc2C(N)=O)ccc1OCc1ccccc1` registered a 50% effective concentration (EC50) of 1880 nM.

For the molecule `COc1ccc(C(=O)Nc2sc(Cc3ccccc3)cc2C(N)=O)cc1COc1ccc(Cl)cc1Cl`, it took 293 nM to reach a half-maximal effect (EC50).

Turning to `NC(=O)c1ccccc1NC(=O)CN1CCN(Cc2c(Cl)cccc2Cl)CC1`, a half-maximal response (EC50) required 6460 nM.

As to `Cc1ccc(C(=O)Nc2ccccc2C(N)=O)s1`, it took 2060 nM to reach a half-maximal effect (EC50).

`COc1ccc(C(=O)Nc2sccc2C(N)=O)cc1COc1ccccc1Cl` yielded a 50% effective concentration (EC50) of 1660 nM.

On to `NC(=O)c1cc(Cc2ccccc2)sc1NC(=O)c1ccc2c(c1)OCO2`, for which the 50% effective concentration (EC50) amounted to 1300 nM.

With `COc1ccc(C(=O)Nc2sc(C(C)C)cc2C(N)=O)cc1COc1ccccc1Cl`, it took 2230 nM to reach a half-maximal effect (EC50).

In turn, `COc1ccc(C(=O)Nc2sc(Cc3ccccc3)cc2C(N)=O)cc1COc1cccc(Cl)c1Cl` came in with an EC50 of 401 nM.

The molecule `NC(=O)c1ccccc1NC(=O)CN1CCN(Cc2ccc(Cl)c(Cl)c2)CC1` yielded an EC50 of 1220 nM.

Consider `COc1ccc(C(=O)Nc2ccccc2C(N)=O)cc1COc1ccccc1Cl`, for which a half-maximal response (EC50) required 1100 nM.

In turn, `NC(=O)c1ccccc1NC(=O)C1CCN(C(=O)c2cccs2)CC1` showed an EC50 of 5180 nM. This EC50 is about 4.7-fold higher than that of the molecule before.

The molecule `Cc1ccc(C(=O)Nc2sc(Cc3ccccc3)cc2C(N)=O)o1` showed an EC50 of 1340 nM. Compared with the last molecule, the EC50 is about 3.9-fold lower.

`COc1ccc(C(=O)Nc2sc(Cc3ccccc3)cc2C(N)=O)cc1COc1ccc(Cl)cc1`: the EC50 came to 1020 nM. The EC50 values of the last two molecules are within 1.5-fold of each other.

In the case of `COc1ccc(C(=O)Nc2sc(Cc3ccccc3)cc2C(N)=O)cc1`, the EC50 was 1940 nM. Compared with the last molecule, the EC50 is about 1.9-fold higher.

Consider `NC(=O)c1cc(Cc2ccccc2)sc1NC(=O)c1cccs1`, for which a half-maximal response (EC50) required 671 nM. Against the preceding molecule, the EC50 is about 2.9-fold lower.

`COc1ccc(OCc2cc(-c3nc4sc(Cc5ccccc5)cc4c(=O)[nH]3)ccc2OC)cc1` showed a 50% effective concentration (EC50) of 1120 nM.

Consider `CC(C)c1cc(C(N)=O)c(NC(=O)Cc2ccc(Cl)c(Cl)c2)s1`, for which the 50% effective concentration (EC50) is 2450 nM.

Regarding `NC(=O)c1c(NC(=O)c2ccc(Cl)s2)sc2c1CCCC2`, the EC50 was determined as 1470 nM. Against the preceding molecule, the EC50 is about 1.7-fold lower.

For the molecule `NC(=O)c1cc(Cl)ccc1OCC(=O)c1ccc(Cl)s1`, it took 1330 nM to reach a half-maximal effect (EC50).

In the case of `NC(=O)c1c(NC(=O)c2ccc(Cl)s2)sc2c1CCC2`, the EC50 was found to be 6270 nM.

`CCc1cc(C(=O)Nc2sccc2C(N)=O)cs1` had an EC50 of 2950 nM.

The molecule `NC(=O)c1cc(Cc2ccccc2)sc1NC(=O)CCc1ccccc1` yielded an EC50 of 6210 nM.

The molecule `CC(Sc1nnc(NC(=O)c2ccccc2)s1)c1nc2ccccc2c(=O)[nH]1` (configuration not stated) registered an EC50 of 4050 nM.

With `NC(=O)c1ccccc1NC(=O)c1cccc(COc2cccc(Cl)c2)c1`, a half-maximal response (EC50) required 675 nM.

On to `NC(=O)c1ccsc1NC(=O)c1cccs1`, for which the 50% effective concentration (EC50) was 3230 nM.

`NC(=O)c1ccccc1NC(=O)c1cc(Cl)cc(Cl)c1` came in with an EC50 of 5140 nM.

The molecule `NC(=O)c1ccccc1NC(=O)c1ccc(Cl)s1` gave an EC50 of 2300 nM. This EC50 is about 2.2-fold lower than that of the molecule before.

Consider `NC(=O)c1ccccc1NC(=O)c1ccc(Cl)c(Cl)c1`, for which it took 1880 nM to reach a half-maximal effect (EC50).

Take `NC(=O)c1ccccc1NC(=O)CN1CCN(Cc2ccccc2Cl)CC1`: a half-maximal effect (EC50) was put at 9580 nM.

As for `COc1ccc(C(=O)Nc2ccccc2C(N)=O)cc1Cl`, the midpoint of the response, the EC50, lay at 5840 nM.

With `NC(=O)c1ccccc1OCc1ccc(Cl)s1`, the concentration giving a half-maximal response (EC50) is 5610 nM.

With `CCc1c(C(=O)Nc2sc(Cc3ccccc3)cc2C(N)=O)csc1C`, the EC50 is 5060 nM.

Molecule `COc1ccc(C(=O)Nc2sc(Cc3ccccc3)cc2C(N)=O)cc1COc1ccccc1Cl` came in with a concentration for a half-maximal effect (EC50) of 439 nM. This EC50 is about 12-fold lower than that of the molecule before.

`COc1ccc(C(=O)Nc2sc(Cc3ccccc3)cc2C(N)=O)cc1COc1c(Cl)cccc1Cl` yielded an EC50 of 2600 nM.
